Laboratory results taken from paper PMC10734772 (Turkish Journal of Chemistry, 2021).

Assays:
Assay type in all cases: cell-based
[1] = test system: K562; assay: MTT assay, K562 cells; settings: Homo sapiens, 24 h, MTT, read-out: Viability rate
[2] = test system: Molt-4; assay: MTT assay, Molt-4 cells; settings: Homo sapiens, MOLT-4, 24 h, read-out: Viability rate
[3] = test system: Jurkat; assay: MTT assay, Jurkat cells; settings: Homo sapiens, 24 h, read-out: Viability rate
[4] = test system: Reh; assay: MTT assay, Reh cells; settings: Homo sapiens, 24 h, read-out: Viability rate
[5] = test system: K562, Nalm-6, Molt-4, Reh, Jurkat, Hek293T cell lines; assay: MTT assay, overall judgement over all cell lines; settings: overall judgement in words; for 6 and 10: on all cell lines, except Reh
Method: To evaluate in-vitro anti-cancer activity of the newly synthesized compounds, they were tested by using the MTT assay in the BCR-ABL positive leukemic cell line (K562), BCR-ABL negative leukemic cell lines (Nalm-6, Molt-4, Reh and Jurkat), and non-leukemic human embryonic kidney tissue (Hek293T) cell line. […] The viability rate of each concentration was calculated by the formula stated in material and methods, the viability rate results for each cell were presented in Table S2 and Figure S44.

[6] = MTT assay, Hek293T non-leukemic control cells; settings: human, read-out: Viability rate
[7] = test system: Nalm-6; assay: MTT assay, Nalm-6 cells; settings: Homo sapiens, 24 h, MTT, read-out: Viability rate
Method: K562, Jurkat and Molt-4 cell lines were seeded as 4x10^5/ml, Reh and Nalm-6 cell lines were seeded 5x10^5/ml, Hek293T cell line was seed as 2x10^5/ml.
MTT assay is a 3-day test. On the first day, cell count was performed in Bio Rad TC-20 device with the help of trypan blue, each cell line was prepared by diluting to the specified concentrations and seeded in a 96-well plate as 100μL to each well and incubated for 1 day.
On the second day, stock solutions were subsequently diluted to various concentrations (0.3–200 μM) with related medium prior to experiments. Specified concentrations of the compounds were seeded in a 96-well plate as 100μL to each well and incubated for 24 h.
After incubation (on the third day), to precipitate leukemia cells, the cell plate was centrifuged at 1500 rpm for 5 min. […] The 50 μl of supernatant was discarded from each well and 100 μl of DMSO was added to dissolve the formazan. Plates were shaken for 45 min to dissolve the dye. Then the optical density of each well was measured by using Thermo VarioSkan Flush Multimode Reader Quantum ST5-1100 at 570 nm wavelength.
Subsequently, viability rate of the cells at each concentration, as percentage, was determined by following formula (1):
Viability rate (%)=100-[(OD(control)-OD(sample))/OD(control)×100].OD=Optical Density
The IC50 values were calculated by using GraphPad Prism. All the data presented as the mean of 6 replicates. […] Statistical analysis was performed using dose-response inhibition, log(inhibitor) vs response-variable slope, least squares (ordinary) fit.

Cc1ccc(NC(=O)c2ccc(CN3CCN(c4ncccn4)CC3)cc2)cc1Nc1cnccn1 [Compound 7, N-(4-Methyl-3-(pyrazin-2-ylamino)phenyl)-4-((4-(pyrimidin-2-yl)piperazin-1-yl)methyl)benzamide]
viability at 0.3 µM ([1]; K562, 0.3 μM): 84.6 ± 0.15%
viability at 0.5 µM ([1]; K562, 0.5 μM): 84.5 ± 0.08%
viability at 1 µM ([1]; K562, 1 μM): 84.4 ± 0.08%
viability at 3 µM ([1]; K562, 3 μM): 84.5 ± 0.1%
viability at 5 µM ([1]; K562, 5 μM): 82.9 ± 0.12%
viability at 10 µM ([1]; K562, 10 μM): 81.6 ± 0.05%
viability at 15 µM ([1]; K562, 15 μM): 80.1 ± 0.06%
viability at 20 µM ([1]; K562, 20 μM): 64 ± 0.07%
viability at 30 µM ([1]; K562, 30 μM): 63.9 ± 0.04%
viability at 50 µM ([1]; K562, 50 μM): 62.9 ± 0.06%
viability at 70 µM ([1]; K562, 70 μM): 62.3 ± 0.07%
viability at 100 µM ([1]; K562, 100 μM): 62.2 ± 0.05%
viability at 150 µM ([1]; K562, 150 μM): 61.6 ± 0.05%
viability at 200 µM ([1]; K562, 200 μM): 59.5 ± 0.07%
viability at 0.3 µM ([2]; Molt-4, 0.3 μM): 93.3 ± 0.16%
viability at 0.5 µM ([2]; Molt-4, 0.5 μM): 93.8 ± 0.08%
viability at 1 µM ([2]; Molt-4, 1 μM): 89.8 ± 0.07%
viability at 3 µM ([2]; Molt-4, 3 μM): 89.6 ± 0.12%
viability at 5 µM ([2]; Molt-4, 5 μM): 89.7 ± 0.08%
viability at 10 µM ([2]; Molt-4, 10 μM): 89.5 ± 0.06%
viability at 15 µM ([2]; Molt-4, 15 μM): 90.3 ± 0.04%
viability at 20 µM ([2]; Molt-4, 20 μM): 90.2 ± 0.06%
viability at 30 µM ([2]; Molt-4, 30 μM): 90.9 ± 0.06%
viability at 50 µM ([2]; Molt-4, 50 μM): 92.2 ± 0.05%
viability at 70 µM ([2]; Molt-4, 70 μM): 90.6 ± 0.06%
viability at 100 µM ([2]; Molt-4, 100 μM): 85.5 ± 0.06%
viability at 150 µM ([2]; Molt-4, 150 μM): 90.4 ± 0.04%
viability at 200 µM ([2]; Molt-4, 200 μM): 89.8 ± 0.07%
viability at 0.3 µM ([3]; 0.3 μM): 77.4 ± 0.09%
viability at 0.5 µM ([3]; 0.5 μM): 77.3 ± 0.07%
viability at 1 µM ([3]; 1 μM): 75.7 ± 0.03%
viability at 3 µM ([3]; 3 μM): 75.5 ± 0.05%
viability at 5 µM ([3]; 5 μM): 75.6 ± 0.03%
viability at 10 µM ([3]; 10 μM): 74.6 ± 0.06%
viability at 15 µM ([3]; 15 μM): 74.2 ± 0.05%
viability at 20 µM ([3]; 20 μM): 74 ± 0.06%
viability at 30 µM ([3]; 30 μM): 73.2 ± 0.07%
viability at 50 µM ([3]; 50 μM): 72.8 ± 0.03%
viability at 70 µM ([3]; 70 μM): 72.8 ± 0.03%
viability at 100 µM ([3]; 100 μM): 72.7 ± 0.04%
viability at 150 µM ([3]; 150 μM): 72.4 ± 0.09%
viability at 200 µM ([3]; 200 μM): 72.1 ± 0.06%
viability at 0.3 µM ([4]; 0.3 μM): 110 ± 0.02%
viability at 0.5 µM ([4]; 0.5 μM): 109.8 ± 0.02%
viability at 1 µM ([4]; 1 μM): 108.7 ± 0.02%
viability at 3 µM ([4]; 3 μM): 103.4 ± 0.02%
viability at 5 µM ([4]; 5 μM): 108.8 ± 0.02%
viability at 10 µM ([4]; 10 μM): 106.5 ± 0.05%
viability at 15 µM ([4]; 15 μM): 100.2 ± 0.02%
viability at 20 µM ([4]; 20 μM): 95.5 ± 0.06%
viability at 30 µM ([4]; 30 μM): 85.4 ± 0.02%
viability at 50 µM ([4]; 50 μM): 66.7 ± 0.02%
viability at 70 µM ([4]; 70 μM): 66.2 ± 0.03%
viability at 100 µM ([4]; 100 μM): 67.7 ± 0.03%
viability at 150 µM ([4]; 150 μM): 66.8 ± 0.02%
viability at 200 µM ([4]; 200 μM): 62.8 ± 0.02%
anticancer activity according to MTT assay results [5]: very poor activity
viability at 24 h, 0.3 µM ([6]; Hek293T cells (non-leukemic control cell line), 0.3 μM): 87.7 ± 0.06%
viability at 24 h, 0.5 µM ([6]; Hek293T cells (non-leukemic control cell line), 0.5 μM): 87.6 ± 0.07%
viability at 24 h, 3 µM ([6]; Hek293T cells (non-leukemic control cell line), 3 μM): 84.6 ± 0.05%
viability at 24 h, 5 µM ([6]; Hek293T cells (non-leukemic control cell line), 5 μM): 81 ± 0.09%
viability at 24 h, 10 µM ([6]; Hek293T cells (non-leukemic control cell line), 10 μM): 80.5 ± 0.06%
viability at 24 h, 15 µM ([6]; Hek293T cells (non-leukemic control cell line), 15 μM): 80.3 ± 0.04%
viability at 24 h, 20 µM ([6]; Hek293T cells (non-leukemic control cell line), 20 μM): 76 ± 0.03%
viability at 24 h, 30 µM ([6]; Hek293T cells (non-leukemic control cell line), 30 μM): 72.1 ± 0.02%
viability at 24 h, 50 µM ([6]; Hek293T cells (non-leukemic control cell line), 50 μM): 64.5 ± 0.02%
viability at 24 h, 70 µM ([6]; Hek293T cells (non-leukemic control cell line), 70 μM): 64.2 ± 0.02%
viability at 24 h, 100 µM ([6]; Hek293T cells (non-leukemic control cell line), 100 μM): 63.5 ± 0.07%
viability at 24 h, 150 µM ([6]; Hek293T cells (non-leukemic control cell line), 150 μM): 60.8 ± 0.03%
viability at 24 h, 200 µM ([6]; Hek293T cells (non-leukemic control cell line), 200 μM): 55.1 ± 0.02%
viability at 24 h, 1 µM ([6]; Hek293T cells, 1 μM): 87 ± 0.08%
viability at 0.3 µM ([7]; Nalm-6, 0.3 μM): 97.9 ± 0.06%
viability at 0.5 µM ([7]; Nalm-6, 0.5 μM): 95.1 ± 0.03%
viability at 1 µM ([7]; Nalm-6, 1 μM): 95.1 ± 0.03%
viability at 3 µM ([7]; Nalm-6, 3 μM): 96 ± 0.03%
viability at 5 µM ([7]; Nalm-6, 5 μM): 95.6 ± 0.02%
viability at 10 µM ([7]; Nalm-6, 10 μM): 95.1 ± 0.02%
viability at 15 µM ([7]; Nalm-6, 15 μM): 95.9 ± 0.03%
viability at 20 µM ([7]; Nalm-6, 20 μM): 96.4 ± 0.03%
viability at 30 µM ([7]; Nalm-6, 30 μM): 96.5 ± 0.05%
viability at 50 µM ([7]; Nalm-6, 50 μM): 72.3 ± 0.02%
viability at 70 µM ([7]; Nalm-6, 70 μM): 71.8 ± 0.02%
viability at 100 µM ([7]; Nalm-6, 100 μM): 71.3 ± 0.02%
viability at 150 µM ([7]; Nalm-6, 150 μM): 70.2 ± 0.01%
viability at 200 µM ([7]; Nalm-6, 200 μM): 59.7 ± 0.02%
